Values joined by “and” are separate entries in the source; they are usually repeats but may differ in a detail not shown here. Equal values may be shown once.
Tests used:
[1] = tested on: neuronal sodium channels; assay: Affinity for neuronal sodium channels (summary statement); format: cell-based, human; settings: automated patch-clamp, HEK293 cells
Method: (§1) HEK293 cells stably expressing the human NaV channel β1 subunit (hNaVβ1) in combination with the α subunit hNaV1.1, hNaV1.2, hNaV1.3, hNaV1.4, hNaV1.5, hNaV1.6, or hNaV1.7 (Scottish Biomedical, Glasgow, UK) were cultured in DMEM/F-12 media (1:1), supplemented with 10% fetal bovine serum, […] geneticin, and […] non-essential amino acids (all reagents from Invitrogen) at 37 °C and in 5% CO2.
(§2) Whole-cell patch-clamp experiments were performed at room temperature using a QPatch 16x automated electrophysiology platform (Sophion Bioscience, Denmark) using 16-channel planar patch-chip plates (QPlates) with a patch-hole diameter of 1 μm and resistance of 2 MΩ. Whole-cell currents were filtered at 5 kHz (8-pole Bessel) and digitized at 25 kHz. A P4 online leak-subtraction protocol was used with non-leak-subtracted currents acquired in parallel. The extracellular solution was 2 mM CaCl2, 1 mM MgCl2, 10 mM HEPES, 4 mM KCl, and 145 mM NaCl at pH 7.4, and the intracellular solution was 140 mM CsF, 1 mM/5 mM EGTA/CsOH, 10 mM HEPES, and 10 mM NaCl at pH 7.3. Hs1a-FL were dissolved in extracellular solution with 0.1% bovine serum albumin (BSA). Concentration-response data were obtained using five concentrations of peptide (2 nM to 10 μM). […] IC50 values were determined from non-linear regression of concentration-response data using GraphPad Prism.

[2] = biological target: T1, hNaV1.3 (Homo sapiens, UniProt Q9NY46); assay: Whole-cell patch-clamp, HEK293 cells stably expressing hNaV1.3; format: cell-based; settings: QPatch 16x automated whole-cell patch-clamp, holding potential -60 mV, five concentrations (2 nM to 10 μM), 0.1% BSA, pH 7.4, ~22 °C; each point average of 3–11 cells
T1 construct: host or cells: HEK293
Method: as §1, §2

[3] = biological target: T2, hNaV1.1 (Homo sapiens, UniProt P35498); assay: Whole-cell patch-clamp, HEK293 cells stably expressing hNaV1.1; format: cell-based; settings: QPatch 16x automated whole-cell patch-clamp, holding potential -60 mV, five concentrations (2 nM to 10 μM), 0.1% BSA, pH 7.4, ~22 °C; each point average of 3–11 cells
T2 construct: host or cells: HEK293
Method: as §1, §2

[4] = biological target: T3, hNaV1.5 (Homo sapiens, UniProt Q14524); assay: Whole-cell patch-clamp, HEK293 cells stably expressing hNaV1.5; format: cell-based
T3 construct: host or cells: HEK293
T3 sequence (Q14524 whole entry): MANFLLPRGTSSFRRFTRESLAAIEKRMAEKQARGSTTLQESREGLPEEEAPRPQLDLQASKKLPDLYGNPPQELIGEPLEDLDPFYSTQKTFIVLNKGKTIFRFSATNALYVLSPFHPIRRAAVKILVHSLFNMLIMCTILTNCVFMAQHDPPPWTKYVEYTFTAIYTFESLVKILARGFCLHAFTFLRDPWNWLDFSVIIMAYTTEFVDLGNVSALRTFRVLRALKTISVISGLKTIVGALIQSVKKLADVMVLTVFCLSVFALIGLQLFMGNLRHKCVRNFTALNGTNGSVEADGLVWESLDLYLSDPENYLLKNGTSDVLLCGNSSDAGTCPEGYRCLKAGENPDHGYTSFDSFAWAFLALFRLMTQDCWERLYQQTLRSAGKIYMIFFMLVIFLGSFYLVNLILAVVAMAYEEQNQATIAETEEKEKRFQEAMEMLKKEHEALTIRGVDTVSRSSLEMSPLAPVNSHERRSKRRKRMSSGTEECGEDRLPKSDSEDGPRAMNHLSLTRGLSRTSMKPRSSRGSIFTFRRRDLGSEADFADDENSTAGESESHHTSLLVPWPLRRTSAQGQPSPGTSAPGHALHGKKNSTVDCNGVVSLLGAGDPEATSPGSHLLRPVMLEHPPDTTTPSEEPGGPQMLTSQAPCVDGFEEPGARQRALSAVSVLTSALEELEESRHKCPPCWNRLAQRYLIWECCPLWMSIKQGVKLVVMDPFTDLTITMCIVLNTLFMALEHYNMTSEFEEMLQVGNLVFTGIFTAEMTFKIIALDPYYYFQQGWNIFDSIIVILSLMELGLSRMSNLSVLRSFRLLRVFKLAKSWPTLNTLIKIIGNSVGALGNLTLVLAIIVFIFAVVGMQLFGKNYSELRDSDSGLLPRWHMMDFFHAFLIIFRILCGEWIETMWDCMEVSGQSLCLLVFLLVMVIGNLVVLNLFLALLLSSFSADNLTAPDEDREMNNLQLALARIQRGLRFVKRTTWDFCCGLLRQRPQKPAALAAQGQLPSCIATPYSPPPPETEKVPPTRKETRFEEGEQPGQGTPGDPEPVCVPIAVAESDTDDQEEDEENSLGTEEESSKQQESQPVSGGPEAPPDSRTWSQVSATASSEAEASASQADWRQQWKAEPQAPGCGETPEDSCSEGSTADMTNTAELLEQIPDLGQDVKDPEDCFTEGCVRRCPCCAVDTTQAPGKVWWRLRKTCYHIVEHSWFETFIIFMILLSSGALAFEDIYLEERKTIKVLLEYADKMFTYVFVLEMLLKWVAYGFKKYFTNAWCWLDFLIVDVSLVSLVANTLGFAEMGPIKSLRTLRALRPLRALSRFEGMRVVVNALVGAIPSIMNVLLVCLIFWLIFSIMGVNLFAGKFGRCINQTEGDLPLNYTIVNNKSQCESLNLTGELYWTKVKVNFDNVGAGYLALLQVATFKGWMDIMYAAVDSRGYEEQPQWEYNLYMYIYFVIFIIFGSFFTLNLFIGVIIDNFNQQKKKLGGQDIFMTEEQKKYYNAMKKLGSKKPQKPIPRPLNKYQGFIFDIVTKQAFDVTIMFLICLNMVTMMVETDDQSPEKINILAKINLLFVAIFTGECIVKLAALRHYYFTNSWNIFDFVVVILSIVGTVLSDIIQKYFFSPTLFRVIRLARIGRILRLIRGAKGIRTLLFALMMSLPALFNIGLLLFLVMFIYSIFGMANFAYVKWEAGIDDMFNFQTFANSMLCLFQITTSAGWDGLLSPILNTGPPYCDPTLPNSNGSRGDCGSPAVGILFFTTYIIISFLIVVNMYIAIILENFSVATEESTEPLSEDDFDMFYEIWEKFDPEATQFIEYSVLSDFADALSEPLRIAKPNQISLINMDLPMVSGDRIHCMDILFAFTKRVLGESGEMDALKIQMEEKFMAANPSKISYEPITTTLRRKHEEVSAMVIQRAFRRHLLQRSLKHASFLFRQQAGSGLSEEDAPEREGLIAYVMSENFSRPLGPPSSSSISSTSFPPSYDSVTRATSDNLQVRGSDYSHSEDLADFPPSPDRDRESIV
Method: as §1, §2

[5] = biological target: T4, hNaV1.4 (Homo sapiens, UniProt P35499); assay: Whole-cell patch-clamp, HEK293 cells stably expressing hNaV1.4; format: cell-based
T4 construct: host or cells: HEK293
T4 sequence (Q07699 19-218): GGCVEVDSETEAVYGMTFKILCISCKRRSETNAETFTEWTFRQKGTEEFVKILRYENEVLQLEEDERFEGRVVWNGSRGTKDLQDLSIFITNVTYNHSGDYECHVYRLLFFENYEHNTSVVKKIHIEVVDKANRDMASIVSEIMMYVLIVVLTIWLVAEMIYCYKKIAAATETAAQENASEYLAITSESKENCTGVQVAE
T4 sequence (P35499 whole entry): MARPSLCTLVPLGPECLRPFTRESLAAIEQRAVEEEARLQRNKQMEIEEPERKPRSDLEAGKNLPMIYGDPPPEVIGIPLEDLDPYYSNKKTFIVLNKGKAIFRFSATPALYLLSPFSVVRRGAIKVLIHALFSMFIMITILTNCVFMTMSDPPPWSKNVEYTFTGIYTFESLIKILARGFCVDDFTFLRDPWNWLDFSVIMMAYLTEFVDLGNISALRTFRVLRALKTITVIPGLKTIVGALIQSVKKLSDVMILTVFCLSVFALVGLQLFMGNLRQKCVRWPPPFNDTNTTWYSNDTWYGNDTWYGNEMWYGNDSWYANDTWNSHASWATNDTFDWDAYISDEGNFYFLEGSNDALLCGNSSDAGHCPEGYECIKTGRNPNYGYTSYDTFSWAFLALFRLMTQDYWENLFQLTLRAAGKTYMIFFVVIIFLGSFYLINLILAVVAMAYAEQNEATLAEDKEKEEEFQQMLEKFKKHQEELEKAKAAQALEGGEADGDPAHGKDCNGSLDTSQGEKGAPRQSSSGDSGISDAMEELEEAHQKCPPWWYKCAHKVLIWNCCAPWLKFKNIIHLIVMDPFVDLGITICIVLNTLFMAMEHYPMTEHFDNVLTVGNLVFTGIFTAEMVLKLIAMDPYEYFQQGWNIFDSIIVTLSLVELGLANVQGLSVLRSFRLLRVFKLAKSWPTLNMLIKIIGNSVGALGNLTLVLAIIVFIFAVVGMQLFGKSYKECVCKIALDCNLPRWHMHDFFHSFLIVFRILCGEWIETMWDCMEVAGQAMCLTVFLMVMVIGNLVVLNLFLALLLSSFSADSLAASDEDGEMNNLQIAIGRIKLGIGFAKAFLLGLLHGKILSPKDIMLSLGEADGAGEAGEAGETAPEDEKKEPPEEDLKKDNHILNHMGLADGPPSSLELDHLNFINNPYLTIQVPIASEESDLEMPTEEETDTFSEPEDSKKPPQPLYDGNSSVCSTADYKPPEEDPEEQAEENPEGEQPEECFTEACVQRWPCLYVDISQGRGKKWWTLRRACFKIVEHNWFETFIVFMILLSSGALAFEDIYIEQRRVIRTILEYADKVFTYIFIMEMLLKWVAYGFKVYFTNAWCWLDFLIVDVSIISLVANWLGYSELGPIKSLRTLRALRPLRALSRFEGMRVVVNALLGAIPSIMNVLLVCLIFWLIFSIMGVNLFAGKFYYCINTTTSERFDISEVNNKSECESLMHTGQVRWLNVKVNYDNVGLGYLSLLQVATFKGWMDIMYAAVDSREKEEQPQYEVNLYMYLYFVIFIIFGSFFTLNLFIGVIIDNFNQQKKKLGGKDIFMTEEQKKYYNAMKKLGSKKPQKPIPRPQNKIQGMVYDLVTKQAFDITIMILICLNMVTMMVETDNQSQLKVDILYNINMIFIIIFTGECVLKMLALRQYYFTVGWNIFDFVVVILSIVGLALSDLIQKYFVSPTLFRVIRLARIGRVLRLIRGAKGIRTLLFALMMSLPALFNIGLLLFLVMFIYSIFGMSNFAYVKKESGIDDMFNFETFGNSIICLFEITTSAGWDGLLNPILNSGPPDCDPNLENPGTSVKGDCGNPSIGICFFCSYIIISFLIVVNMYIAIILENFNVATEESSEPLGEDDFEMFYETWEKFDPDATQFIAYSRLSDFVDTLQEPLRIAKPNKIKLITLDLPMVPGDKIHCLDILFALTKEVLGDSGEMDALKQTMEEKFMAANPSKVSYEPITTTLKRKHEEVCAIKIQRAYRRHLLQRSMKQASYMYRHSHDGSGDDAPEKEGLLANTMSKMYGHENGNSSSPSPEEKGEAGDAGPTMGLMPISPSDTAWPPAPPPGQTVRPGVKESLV
Method: as §1, §2

[6] = biological target: T5, hNaV1.2 (Homo sapiens, UniProt Q99250); assay: Whole-cell patch-clamp, HEK293 cells stably expressing hNaV1.2; format: cell-based; settings: QPatch 16x automated whole-cell patch-clamp, holding potential -65 mV, five concentrations (2 nM to 10 μM), 0.1% BSA, pH 7.4, ~22 °C; each point average of 3–11 cells
T5 construct: host or cells: HEK293
Method: as §1, §2

[7] = tested on: nerve and muscle; assay: Nerve-to-muscle comparison, epifluorescence; format: in vivo, mouse
Method: (§3) Female athymic nude mice (4–8 weeks old, athymic-nude (outbred) (stock#:088; Envigo, USA) were allowed to acclimatize at the MSKCC vivarium for 1 week with ad libitum food and water prior to the experimental procedure. For imaging experiments, animals were sacrificed 30 min post-tail vein injection of Hs1a-FL, Hs1a/Hs1a-FL, or PBS. All animal experiments were performed in accordance with institutional guidelines and approved by the MSKCC Institutional Animal Care and Use Committee, following the NIH guidelines for animal welfare.
(§4) One group of animals was intravenously injected with Hs1a-FL (4 nmol, 45 μM of Hs1a-FL in 100 μL of PBS, n = 3). A second group of animals was injected with Hs1a and Hs1a-FL (Hs1a-FL, 45 μM, 4 nmol and Hs1a, 120 μM, 12 nmol in 100 μL PBS, n = 3) or PBS (n = 3). Animals were sacrificed 30 min post-injection and epifluorescence images obtained. Epifluorescence images of the right sciatic nerve (RSN) and left sciatic nerve (LSN) were obtained in situ from all the mice in the study. Epifluorescence images of the biodistribution included RSN, LSN, muscle, heart, kidney, liver, and brain and were acquired with an IVIS Spectrum imaging system (PerkinElmer) using a predetermined filter set (excitation = 710/45 nm, emission = 800–820 nm). […]
(§5) Statistical analyses were performed using GraphPad Prism 8. […] All p values were calculated using an unpaired t test. […]

[8] = tested on: mouse sciatic nerve; assay: Epifluorescence imaging of resected sciatic nerves after intravenous injection; format: in vivo; settings: 30 min post-injection
Method: as §3, §4, §5

[9] = Ex vivo epifluorescence biodistribution in organs; design: species or system mouse; settings: 30 min post-injection
Method: as §3
One group of animals was intravenously injected with Hs1a-FL (4 nmol, 45 μM of Hs1a-FL in 100 μL of PBS, n = 3). A second group of animals was injected with Hs1a and Hs1a-FL (Hs1a-FL, 45 μM, 4 nmol and Hs1a, 120 μM, 12 nmol in 100 μL PBS, n = 3) or PBS (n = 3). Animals were sacrificed 30 min post-injection and epifluorescence images obtained. Epifluorescence images of the right sciatic nerve (RSN) and left sciatic nerve (LSN) were obtained in situ from all the mice in the study. Epifluorescence images of the biodistribution included RSN, LSN, muscle, heart, kidney, liver, and brain and were acquired with an IVIS Spectrum imaging system (PerkinElmer) using a predetermined filter set (excitation = 710/45 nm, emission = 800–820 nm). Autofluorescence was removed through spectral unmixing. Semiquantitative analysis of the Hs1a-FL signal was conducted by measuring the average radiant efficiency (in units of [p/s/cm^2/sr]/[μW/cm^2]) in regions of interest (ROIs) that were placed on all resected nerves and as well in all organs from the biodistribution under white light guidance.
Statistical analyses were performed using GraphPad Prism 8. Unless otherwise stated, data points represent mean values, and error bars represent standard deviations of biological replicates. All p values were calculated using an unpaired t test. Statistical significance was considered for p values < 0.05 and as follows: ns = not significant, *p < 0.05, **p < 0.01, ***p < 0.001.

[10] = tested on: NaV1.7; assay: Binding to NaV1.7 in vivo post-intravenous injection, blocked by excess unlabeled Hs1a; design: species or system mouse
Method: as §3
For the confocal microscopy experiments, 5 μm cryosections of sciatic nerve tissues embedded in optimal cutting temperature compound (OCT) were used to determine the distribution and localization of Hs1a-FL from mice previously injected with the fluorescent agent Hs1a-FL (4 nmol, 45 μM of Hs1a-FL in 100 μL of PBS), the blocking solution Hs1a/Hs1a-FL (Hs1a-FL, 45 μM, 4 nmol and Hs1a 120 μM, 12 nmol in 100 μL PBS), or 100 μL of PBS. These resected nerves were incubated with Hoechst 33342 (20 μM, 1 nmol in 50 μL of PBS) to counterstain nuclei, which were subsequently embedded in Mowiol mounting medium. Fresh tissues were counterstained with Hoechst 33342 (20 μM, 1 nmol in 50 μL of PBS) and samples placed directly on a microscope slide for detection of the fluorescence signal of the fluorescent peptide. […]

[11] = tested on: mouse sciatic nerve (NaV1.7); assay: Confocal microscopy of sciatic nerve after intravenous injection; format: in vivo; settings: i.v. Hs1a-FL 4 nmol (45 μM in 100 μL PBS), with or without Hs1a 12 nmol (120 μM, 3-fold molar excess); 30 min post-injection; athymic nude mice
Method: as §3
For the confocal microscopy experiments, 5 μm cryosections of sciatic nerve tissues embedded in optimal cutting temperature compound (OCT) were used to determine the distribution and localization of Hs1a-FL from mice previously injected with the fluorescent agent Hs1a-FL (4 nmol, 45 μM of Hs1a-FL in 100 μL of PBS), the blocking solution Hs1a/Hs1a-FL (Hs1a-FL, 45 μM, 4 nmol and Hs1a 120 μM, 12 nmol in 100 μL PBS), or 100 μL of PBS. These resected nerves were incubated with Hoechst 33342 (20 μM, 1 nmol in 50 μL of PBS) to counterstain nuclei, which were subsequently embedded in Mowiol mounting medium. Fresh tissues were counterstained with Hoechst 33342 (20 μM, 1 nmol in 50 μL of PBS) and samples placed directly on a microscope slide for detection of the fluorescence signal of the fluorescent peptide.

[12] = at concentrations up to 3 μM, automated patch-clamp

| Compound | affinity for neuronal sodium channels ([1]; ~22 °C) | IC50 range for neuronal NaV channels ([1]; NaV1.1, NaV1.2, NaV1.3, NaV1.6, NaV1.7) | IC50 [2] [nM] | IC50 [3] [nM] | IC50 ([4]; QPatch 16x automated whole-cell patch-clamp, holding potential -105 mV, five concentrations (2 nM to 10 μM), 0.1% BSA, pH 7.4, ~22 °C, each point average of 3–11 cells) [nM] | inhibition of NaV1.5 [4, 12] | IC50 ([5]; QPatch 16x automated whole-cell patch-clamp, holding potential -75 mV, five concentrations (2 nM to 10 μM), 0.1% BSA, pH 7.4, ~22 °C, each point average of 3–11 cells) [nM] | inhibition of NaV1.4 [5, 12] | IC50 [6] [nM] | nerve-to-muscle contrast ([7]; epifluorescence visualization of sciatic mouse nerves, abstract statement) | nerve-to-muscle ratio ([7]; i.v. Hs1a-FL 4 nmol with or without Hs1a 12 nmol (block), 30 min post-injection, epifluorescence, mean ± SD, PBS 2.90 ± 2.76) | visibility / accumulation in resected sciatic nerves ([8]; i.v. 4 nmol Hs1a-FL alone, epifluorescence) | radiant efficiency of resected sciatic nerves ([8]; i.v. Hs1a-FL 4 nmol (45 μM in 100 μL PBS), with or without Hs1a 12 nmol (120 μM), IVIS, ex 710/45 nm, em 800–820 nm, mean ± SD, n = 3 mice, Hs1a-FL vs co-injection unpaired t test p < 0.001) | radiant efficiency, brain ([9]; i.v. 4 nmol in 100 μL PBS, IVIS, ex 710/45 nm, em 800–820 nm, mean ± SD, n = 3, PBS group 0.001 ± 0.0005 × 10^7) | radiant efficiency, liver ([9]; i.v. 4 nmol in 100 μL PBS, IVIS, ex 710/45 nm, em 800–820 nm, mean ± SD, n = 3, PBS group 0.002 ± 0.001 × 10^7) | radiant efficiency, kidney ([9]; i.v. 4 nmol in 100 μL PBS, IVIS, ex 710/45 nm, em 800–820 nm, mean ± SD, n = 3, PBS group 0.005 ± 0.004 × 10^7) | liver accumulation ([9]; mouse, i.v. 4 nmol) | binding to NaV1.7 on the surface of human and mouse nerves ([10]; abstract statement) | binding to NaV1.7 channels in vivo ([10]; post-intravenous injection, mouse, blocked by excess dose of unlabeled Hs1a) | presence of Hs1a-FL signal in sciatic nerve by confocal microscopy [11] |
| --- | --- | --- | --- | --- | --- | --- | --- | --- | --- | --- | --- | --- | --- | --- | --- | --- | --- | --- | --- | --- |
| CC(C)C[C@H](NC(=O)[C@H](CCCCN)NC(=O)CNC(=O)[C@H](CCCCN)NC(=O)[C@@H]1CSSC[C@@H]2NC(=O)[C@H](CCCCN)NC(=O)[C@H](CC(=O)O)NC(=O)[C@H](CC(N)=O)NC(=O)[C@H](CCCCN)NC(=O)[C@@H]3CCCN3C(=O)[C@H](CC(N)=O)NC(=O)[C@@H]3CSSC[C@H](NC(=O)[C@H](C(C)C)NC(=O)[C@H](CC(C)C)NC(=O)[C@H](CC(N)=O)NC(=O)[C@H](C)NC(=O)[C@H](CSSC[C@H](NC(=O)[C@H](CC(=O)O)NC(=O)[C@H](CC(N)=O)NC(=O)CN)C(=O)N[C@@H](CC(C)C)C(=O)NCC(=O)N[C@@H](Cc4ccccc4)C(=O)N[C@@H](Cc4c[nH]c5ccccc45)C(=O)N[C@@H](CO)C(=O)N[C@@H](C)C(=O)N3)NC2=O)C(=O)N[C@@H](CO)C(=O)N[C@@H](CO)C(=O)N[C@@H](CCCCN)C(=O)N[C@@H](Cc2c[nH]cn2)C(=O)N[C@@H](CCCCN)C(=O)N[C@@H](Cc2c[nH]c3ccccc23)C(=O)N1)C(=O)O [Hs1a] | low nanomolar affinity | low nanomolar range | 107 | 19.4 | > 3000 | did not inhibit | > 3000 | did not inhibit | 82.2 | – | – | – | – | – | – | – | – | – | – | – |
| Cy7.5@GNDCLGFWSACNPKNDKCCANLVCSSKHKWCKGKL (disulfide) [Hs1a-FL, NIR-labeled version of Hs1a, Hs1a conjugated to Cy7.5 dye] | – | – | – | – | – | – | – | – | – | favorable nerve-to-muscle contrast | 4.83 ± 8.73 and ~ 4 | clearly visible | 1.6 ± 0.3 × 10^5 [p/s/cm^2/sr]/[μW/cm^2] | 0.2 ± 0.1 × 10^7 [p/s/cm^2/sr]/[μW/cm^2] | 3.0 ± 2.0 × 10^7 [p/s/cm^2/sr]/[μW/cm^2] | 1.4 ± 1.1 × 10^7 [p/s/cm^2/sr]/[μW/cm^2] | high liver accumulation | specific and stable binding | specifically bind to NaV1.7 channels in vivo | confirmed the presence of Hs1a-FL signal |

Source: publication PMC7225226, “Fluorescence labeling of a NaV1.7-targeted peptide for near-infrared nerve visualization” (EJNMMI Research, 2020)
